Data from article PMC7279487, “Dual Target Ligands with 4-tert-Butylphenoxy Scaffold as Histamine H3 Receptor Antagonists and Monoamine Oxidase B Inhibitors” (International Journal of Molecular Sciences, 2020).

Key:
human MAO A = molecular target: T1, human MAO A (Homo sapiens, UniProt P21397); test: hMAO A inhibition, fluorometric Amplex Red MAO assay; assay type: biochemical; details: mean ± SEM; p-tyramine 200 μM
T1 construct: purchased Sigma Aldrich M7316
T1 sequence (P21397 1-527): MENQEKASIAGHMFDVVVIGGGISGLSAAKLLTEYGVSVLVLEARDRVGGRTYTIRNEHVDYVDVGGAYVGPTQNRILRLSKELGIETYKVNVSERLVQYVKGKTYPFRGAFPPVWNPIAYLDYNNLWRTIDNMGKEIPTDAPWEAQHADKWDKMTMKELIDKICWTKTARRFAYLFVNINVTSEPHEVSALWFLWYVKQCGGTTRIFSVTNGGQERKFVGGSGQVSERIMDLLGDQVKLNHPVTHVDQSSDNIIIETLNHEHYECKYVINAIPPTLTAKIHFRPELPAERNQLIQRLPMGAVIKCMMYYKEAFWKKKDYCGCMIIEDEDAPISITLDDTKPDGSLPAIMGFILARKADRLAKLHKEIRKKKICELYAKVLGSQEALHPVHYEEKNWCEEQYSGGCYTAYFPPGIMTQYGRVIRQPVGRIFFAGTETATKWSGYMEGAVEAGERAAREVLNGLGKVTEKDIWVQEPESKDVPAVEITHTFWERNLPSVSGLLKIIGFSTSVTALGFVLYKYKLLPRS
Experimental: Inhibitory potency of compounds on MAO isoenzymes were carried out by a fluorometric method with a commercial Amplex™ Red Monoamine Oxidase Assay Kit (ThermoFisher Scientific A12214, Waltham, MA, USA) as described previously. For all tests, recombinant human MAO B and MAO A (from Sigma AldrichM7441 and M7316, Darmstadt, Germany) were used. Inhibitors’ activity was measured in the presence of p-tyramine (200 μM).
[…] […] All calculations were made in Microsoft Excel and GraphPadPrism software. All experiments were performed in duplicate, and data are expressed as mean ± SEM of 2–5 independent experiments.

[1] = tested on: neuroblastoma SH-SY5Y cells; test: toxicity against SH-SY5Y cells; assay type: cell-based; details: 10 and 50 µM
Experimental: (§1) The used reference cytostatic drug doxorubicin (DX) decreased cell viability <50% under the same conditions at very low concentrations of 0.2 and 0.05 µM. […] Oxidative damage was induced by very high toxic levels of hydrogen peroxide (H2O2; 300 µM), the popular cell model for PD research, in neuroblastoma SH-SY5Y cell line. […] Salsolinol (SAL) was used at a concentration of 50 µM as the reference compound with the proven neuroprotection activity.
(§2) SH-SY5Y cells were seeded in microplate at a concentration of 2.5 × 10^4 cells/well in 100 μL culture medium and cultured for 24 h at 37 C and 5% CO2 to reach 70% confluence. […] (R,S)-salsolinol (purity ≥ 99%) was obtained from Cayman Chemical (Ann Arbor, MI, USA). Next, H2O2 was added at final concentration 300 μM and the cells were placed into the incubator. After 24 h of compounds co-incubation with H2O2, the CellTiter 96®AQueous Non-Radioactive Cell Proliferation Assay (MTS) labeling mixture was added to each well, and the microplates were incubated under the same conditions for 5 h. The absorbance was measured using a microplate reader EnSpire (PerkinElmer, Waltham, MA USA) at 490 nm. All measurements were performed in triplicate, and results are shown as mean ± SD.

hMAO B = molecular target: T2, hMAO B (Homo sapiens, UniProt P27338); test: hMAO B inhibition, fluorometric Amplex Red MAO assay; assay type: biochemical
T2 construct: purchased Sigma Aldrich M7441
T2 sequence (P27338 1-520): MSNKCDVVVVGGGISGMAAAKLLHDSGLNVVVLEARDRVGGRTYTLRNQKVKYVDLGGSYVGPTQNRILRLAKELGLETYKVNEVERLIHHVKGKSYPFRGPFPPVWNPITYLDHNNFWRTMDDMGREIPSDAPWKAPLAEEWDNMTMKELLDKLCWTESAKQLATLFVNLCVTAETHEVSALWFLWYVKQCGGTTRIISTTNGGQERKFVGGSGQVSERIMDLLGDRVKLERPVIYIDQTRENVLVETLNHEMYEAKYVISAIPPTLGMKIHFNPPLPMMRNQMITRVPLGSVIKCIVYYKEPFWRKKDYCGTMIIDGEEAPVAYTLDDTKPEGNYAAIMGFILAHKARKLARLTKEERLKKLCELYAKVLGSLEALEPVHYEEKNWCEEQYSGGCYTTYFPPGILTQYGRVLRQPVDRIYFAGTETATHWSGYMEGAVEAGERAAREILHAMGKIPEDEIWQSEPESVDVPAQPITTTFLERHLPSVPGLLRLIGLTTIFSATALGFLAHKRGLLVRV

[2] = tested on: neuroblastoma SH-SY5Y cells; test: neuroprotection in H2O2-treated SH-SY5Y cells (MTS); assay type: cell-based; details: H2O2 300 µM, 24 h
Experimental: as §1, §2

[3] = concentration used in kinetic studies

## CC(C)(C)c1ccc(OCCCN2CCCCC2)cc1 [DL76, 1-(3-(4-tert-butylphenoxy)propyl)piperidine]
Human MAO A
  IC50: > 10 µM
[1]
  toxic effect against SH-SY5Y cells: no toxic effect
hMAO B; [3]
  IC20: 7 nM
  IC80: 164 nM
hMAO B; mean ± SEM of 2-5 independent experiments, p-tyramine 200 μM
  IC50: 48 ± 15 nM
[2]; 10 µM
  cell survival of H2O2-damaged SH-SY5Y cells (neuroprotection): no increase of cell survival
[2]; 50 µM
  cell survival of H2O2-damaged SH-SY5Y cells (neuroprotection): no increase of cell survival
